# Legend:
# [1] = target: T1, Aspergillus topoisomerase I (Aspergillus nidulans, UniProt Q5BGS7); test: Covalent transfer of 32P radioactivity from DNA to topoisomerase I (phosphate-transfer); format: biochemical; settings: for phosphate transfer to 105 kDa Aspergillus topoisomerase I: Ho33342 1 mM
# T1 construct: about 105 kDa by phosphate transfer
# T1 sequence (Q5BGS7 1-871): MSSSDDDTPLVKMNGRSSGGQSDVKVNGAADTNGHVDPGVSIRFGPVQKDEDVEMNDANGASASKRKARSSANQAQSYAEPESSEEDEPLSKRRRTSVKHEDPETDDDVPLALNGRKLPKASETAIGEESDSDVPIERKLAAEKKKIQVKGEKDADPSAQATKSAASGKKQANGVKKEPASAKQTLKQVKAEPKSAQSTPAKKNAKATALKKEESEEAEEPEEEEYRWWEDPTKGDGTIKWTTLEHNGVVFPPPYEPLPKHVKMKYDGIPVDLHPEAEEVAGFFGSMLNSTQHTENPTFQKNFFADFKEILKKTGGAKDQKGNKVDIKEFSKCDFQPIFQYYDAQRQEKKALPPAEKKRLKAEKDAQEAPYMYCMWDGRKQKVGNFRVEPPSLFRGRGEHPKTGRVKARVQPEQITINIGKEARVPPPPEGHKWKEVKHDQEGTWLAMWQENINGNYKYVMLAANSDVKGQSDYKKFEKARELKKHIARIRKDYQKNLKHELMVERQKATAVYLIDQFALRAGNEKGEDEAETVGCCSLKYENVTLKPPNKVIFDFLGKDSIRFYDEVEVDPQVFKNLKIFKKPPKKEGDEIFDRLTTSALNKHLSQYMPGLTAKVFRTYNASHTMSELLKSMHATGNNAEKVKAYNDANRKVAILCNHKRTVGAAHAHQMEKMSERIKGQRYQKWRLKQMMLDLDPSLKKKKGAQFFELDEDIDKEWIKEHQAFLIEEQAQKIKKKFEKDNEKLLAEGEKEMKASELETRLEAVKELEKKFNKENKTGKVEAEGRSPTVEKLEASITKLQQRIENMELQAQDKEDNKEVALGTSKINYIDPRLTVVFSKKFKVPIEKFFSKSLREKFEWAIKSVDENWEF
# Procedure: This phosphate-transfer method was a modification of the procedure described previously by T. C. Rowe et al., J. Biol. Chem., 259, 9177 (1984). Briefly, a 100-μl reaction mixture containing 10 mM Tris-HCl, pH 7.5, 1 mM MgCl2, 0.5 mM dithiothreitol, 30 μg/ml of bovine serum albumin, drug (camptothecin or Hoechst 33342) at an indicated concentration, 50 ng of YEpG DNA labeled with ^32 PdATP by the random primer method (Random Primed Labeling Kit, Boehringer Mannheim), and 300 units of human or Aspergillus topoisomerase I, was incubated at 37° C. for 10 minutes. The reactions were terminated by adding NaOH to 0.18M and EDTA to 2.5 mM. After neutralizing the reaction with a precalibrated amount of Tris-HCl, 9 μl of 0.1M CaCl2 and 7.5 μl of 20% SDS were added, and the volume was adjusted to 300 μl with H2 O.
# Five units of Bal31 nuclease (New England, BioLabs) were added, and the sample was digested for 1 hour at 25° C. The reaction was terminated by extraction with 1 volume of phenol. The phenol phase was saved and back-extracted once with an equal volume of 10 mM Tris-HCl, pH 8.0, 1 mM EDTA. The protein-oligonucleotide complexes were then precipitated from the phenol phase by adding 10 volumes of ice-cold acetone and placing on ice for 10 minutes. The pellet was dissolved in SDS sample buffer and analyzed by SDS-PAGE. Gel drying and autoradiography were done as described (Hsiang et al., J. Biol. Chem., 260, 14873 (1985)).
# [2] = target: T2, calf thymus topoisomerase I (Bos taurus, UniProt F1MN93); test: Topoisomerase I-mediated DNA cleavage assay (calf thymus enzyme); format: biochemical; settings: for Topo I-mediated DNA cleavage (REC, Relative Effective Concentration): concentration relative to Hoechst 33342 (arbitrarily 1) producing the same cleavage on plasmid DNA, calf thymus topoisomerase I
# T2 construct: DNA topoisomerase I was purified from calf thymus gland as reported previously; from tissue; host or cells: calf thymus gland
# T2 sequence (F1MN93 1-767): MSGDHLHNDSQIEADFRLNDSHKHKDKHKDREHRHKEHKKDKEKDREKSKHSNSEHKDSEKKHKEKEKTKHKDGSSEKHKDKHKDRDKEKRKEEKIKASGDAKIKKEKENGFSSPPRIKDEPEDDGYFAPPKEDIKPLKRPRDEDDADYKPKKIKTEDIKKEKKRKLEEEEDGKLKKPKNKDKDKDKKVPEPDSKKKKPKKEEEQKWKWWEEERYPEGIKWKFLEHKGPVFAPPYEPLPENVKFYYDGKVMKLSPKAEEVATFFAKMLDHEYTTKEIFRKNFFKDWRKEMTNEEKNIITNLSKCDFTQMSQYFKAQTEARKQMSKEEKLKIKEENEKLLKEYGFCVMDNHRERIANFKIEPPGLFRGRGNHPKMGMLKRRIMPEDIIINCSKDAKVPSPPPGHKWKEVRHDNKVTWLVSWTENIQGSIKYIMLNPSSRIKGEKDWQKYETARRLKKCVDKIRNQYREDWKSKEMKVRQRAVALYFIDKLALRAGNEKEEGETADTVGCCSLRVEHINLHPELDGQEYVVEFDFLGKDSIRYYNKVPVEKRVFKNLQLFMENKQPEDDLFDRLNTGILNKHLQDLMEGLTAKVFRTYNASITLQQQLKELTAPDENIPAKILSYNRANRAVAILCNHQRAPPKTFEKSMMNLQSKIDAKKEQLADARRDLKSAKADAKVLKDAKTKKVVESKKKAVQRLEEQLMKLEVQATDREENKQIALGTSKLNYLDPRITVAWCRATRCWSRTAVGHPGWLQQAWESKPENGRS
# Description: A. Topoisomerase I-Mediated DNA Cleavage Assays
# DNA topoisomerase I was purified from calf thymus gland as reported previously by B. D. Halligan et al., J. Biol. Chem., 260, 2475 (1985).
# Plasmid YEpG was also purified by the alkali lysis method followed by phenol deproteination and CsCl/ethidium isopycnic centrifugation as described by T. Maniatis et al., Molecular Cloning, A Laboratory Manual, Cold Spring Harbor Labs, N.Y. (1982) at pages 149-185. The end-labeling of the plasmid was accomplished as previously described by L. F. Liu et al., J. Biol. Chem., 258, 15365 (1983). The cleavage assays were performed as previously reported by A. Y. Chen et al., Cancer Res., 53, 1332 (1993). Human topoisomerase I was isolated as a recombinant fusion protein using a T7 expression system.
SMILES,phosphate transfer to 105 kDa Aspergillus topoisomerase I [1],phosphate transfer at higher concentrations ([1]; higher concentrations of Ho33342),"potency as topoisomerase I inhibitor compared with Hoechst 33342, in words [2]","Topo I-mediated DNA cleavage (REC, Relative Effective Concentration) [2]"
"CCOc1ccc(-c2nc3cc(-c4nc5cc(N6CCN(C)CC6)ccc5[nH]4)ccc3[nH]2)cc1 [Hoechst 33342, 2'-(4-ethoxyphenyl)-5-(4-methyl-1-piperazinyl)-2,5'-bi-1H-benzimidazole]",stimulated the phosphate transfer,progressively inhibited,–,–
"c1ccc(-c2ccc3[nH]c(-c4ccc5[nH]c(-c6ccc7[nH]cnc7c6)nc5c4)nc3c2)cc1 [Compound 13, 5-Phenyl-2-[2'(benzimidazol-5""-yl)benzimidazol-5'-yl]benzimidazole]",–,–,approximately one-half as potent,2
CC[C@@]1(O)C(=O)OCc2c1cc1n(c2=O)Cc2cc3ccccc3nc2-1 [camptothecin],stimulated the phosphate transfer,–,–,–
"N#Cc1ccc2[nH]c(-c3ccc4[nH]c(-c5ccc6[nH]cnc6c5)nc4c3)nc2c1 [Compound 11, 5-Cyano-2-[2'-(benzimidazol-5""-yl)benzimidazol-5'-yl]benzimidazole]",–,–,–,1

# — patent US5770617A, “Terbenzimidazoles useful as antifungal agents” (Rutgers, The State University of New Jersey, priority 1997, dated 1998)
